Data reported in article PMC5563514, “Viral polymerase inhibitors T-705 and T-1105 are potential inhibitors of Zika virus replication” (Archives of Virology, 2017).
Like-named read-outs stand apart in the source and are kept apart here.

Legend:
[1] = Cytotoxicity against Vero cells (CPE monitoring, neutral red uptake); assay type: cell-based; details: African green monkey; for CC50 at 72 h: Vero cells, neutral red uptake, three independent experiments
Procedure: The cytotoxicity of the compounds against Vero cells was determined by monitoring the CPE. Vero cells (2.5 × 10^4/well) were plated in the wells of a 96-well plate. After 24 h, the cell monolayer was incubated with different concentrations of the test compounds for 72 h at 37 °C under a 5% CO2 atmosphere in a CO2 incubator and then monitored for CPE. The appropriate negative and positive controls were used. A neutral red uptake assay was used to assess cell viability. The half-maximal (50%) cytotoxic concentration (CC50) of each compound was determined from the dose-response curve.

ZIKV strain SZ01 = assay: CPE inhibition assay, anti-ZIKV activity in Vero cells; assay type: cell-based, Zika virus; details: for cell death rate compared with mock-treated ZIKV-infected cells: P < 0.05, two-tailed Student's t-test; for EC50: Zika virus, ZIKV strain SZ01, 68.6 TCID50, Vero cells, neutral red uptake, three independent experiments
YFV [2] = details: at low concentrations; cited from earlier work
YFV [3] = details: cited from earlier work

CCCCCCCCCCCCCCCCOCCCOP(=O)(O)CO[C@H](CO)Cn1ccc(N)nc1=O [CMX001, brincidofovir]
CC50 [1]: 11.3 ± 0.2 µM | anti-ZIKV activity (ZIKV strain SZ01): not active | effect on ZIKV-induced CPE or cell death (ZIKV strain SZ01): little or no effect

CCn1ccnc(C(N)=O)c1=O [Compound 1, 4-ethyl-3-oxo-3,4-dihydropyrazine-2-carboxamide]
CC50 at 72 h [1]: > 1000 µM

CC(=O)OCCOCn1ccnc(C(N)=O)c1=O [Compound 2, 2-((3-carbamoyl-2-oxopyrazin-1(2H)-yl)methoxy) ethyl acetate]
CC50 at 72 h [1]: > 2000 µM

NC(=O)c1nccn(COCCO)c1=O [Compound 3, 4-((2-hydroxyethoxy)methyl)-3-oxo-3,4-dihydropyrazine-2-carboxamide]
CC50 at 72 h [1]: > 1000 µM

NC(=O)c1nccn(CC(O)COC(c2ccccc2)(c2ccccc2)c2ccccc2)c1=O (stereo not shown) [Compound 4, 4-(2-hydroxy-3-(trityloxy)propyl)-3-oxo-3,4-dihydropyrazine-2-carboxamide]
CC50 at 72 h [1]: > 500 µM

NC(=O)c1nccn(CC(O)CO)c1=O (stereo not shown) [Compound 5, 4-(2,3-dihydroxypropyl)-3-oxo-3,4-dihydropyrazine-2-carboxamide]
CC50 at 72 h [1]: > 2000 µM

NC(=O)c1nccn(C2OC(CO)C(O)C2O)c1=O (stereo not shown) [Compound 6, 4-(3,4-dihydroxy-5-(hydroxymethyl)tetrahydrofuran-2-yl)-3-oxo-3,4-dihydropyrazine-2-carboxamide]
activity in cell culture (YFV [2]): only slight activity | CC50 at 72 h [1]: > 1000 µM | efficacy in a hamster model of YFV infection (YFV [3]): effective

CC(=O)OCCOCn1cc(F)nc(C(N)=O)c1=O [Compound 7, 2-((3-carbamoyl-5-fluoro-2-oxopyrazin-1(2H)-yl)methoxy) ethyl acetate]
CC50 at 72 h [1]: > 1000 µM

NC(=O)c1nc(F)cn(CC(O)COC(c2ccccc2)(c2ccccc2)c2ccccc2)c1=O (stereo not shown) [Compound 8, 6-fluoro-4-(2-hydroxy-3-(trityloxy)propyl)-3-oxo-3,4-dihydropyrazine-2-carboxamide]
CC50 at 72 h [1]: > 500 µM

NC(=O)c1nc(F)cn(C2OC(CO)C(O)C2O)c1=O (stereo not shown) [Compound 9, 4-(3,4-dihydroxy-5-(hydroxymethyl)tetrahydrofuran-2-yl)-6-fluoro-3-oxo-3,4-dihydropyrazine-2-carboxamide]
CC50 at 72 h [1]: > 1000 µM

NC(=O)c1nc([N+](=O)[O-])cnc1O [Compound 10, 6-nitropyrazine-3-hydroxy-2-carboxamide]
CC50 at 72 h [1]: > 4000 µM

NC(=O)c1nc(Br)cnc1O [Compound 11, 6-bromo-3-hydroxypyrazine-2-carboxamide]
CC50 at 72 h [1]: > 2000 µM

COc1cnc(O)c(C(N)=O)n1 [Compound 12, 3-hydroxy-6-methoxypyrazine-2-carboxamide]
CC50 at 72 h [1]: > 1000 µM

CCOc1cnc(O)c(C(N)=O)n1 [Compound 13, 6-ethoxy-3-hydroxypyrazine-2-carboxamide]
CC50 at 72 h [1]: > 500 µM

CCCOc1cnc(O)c(C(N)=O)n1 [Compound 14, 3-hydroxy-6-propoxypyrazine-2-carboxamide]
CC50 at 72 h [1]: > 500 µM

CC(C)Oc1cnc(O)c(C(N)=O)n1 [Compound 15, 6-isopropoxypyrazine-3-hydroxy-2-carboxamide]
CC50 at 72 h [1]: 345 ± 48.4 µM

CCCCOc1cnc(O)c(C(N)=O)n1 [Compound 16, 6-butoxy-3-hydroxypyrazine-2-carboxamide]
CC50 at 72 h [1]: 310 ± 15.2 µM

CCCCCOc1cnc(O)c(C(N)=O)n1 [Compound 17, 3-hydroxy-6-(pentyloxy)pyrazine-2-carboxamide]
CC50 at 72 h [1]: 260 ± 51.1 µM

CCCCCCCCOc1cnc(O)c(C(N)=O)n1 [Compound 18, 3-hydroxy-6-(octyloxy)pyrazine-2-carboxamide]
CC50 at 72 h [1]: 245 ± 17.8 µM

NC(=O)c1nc(OCCO)cnc1O [Compound 19, 3-hydroxy-6-(2-hydroxyethoxy) pyrazine-2-carboxamide]
CC50 at 72 h [1]: > 1000 µM

COCCOc1cnc(O)c(C(N)=O)n1 [Compound 20, 3-hydroxy-6-(2-methoxyethoxy) pyrazine-2-carboxamide]
CC50 at 72 h [1]: > 1000 µM

NC(=O)c1nc(F)c[nH]c1=O [Compound T-705, favipiravir]
CC50 at 72 h [1]: > 3000 µM | cell death rate compared with mock-treated ZIKV-infected cells (ZIKV strain SZ01): significantly reduced | EC50 (ZIKV strain SZ01): 111 ± 13.1 µM

NC(=O)c1nccnc1O [Compound T-1105, 3-hydroxypyrazine-2-carboxamide]
CC50 at 72 h [1]: > 4000 µM | cell death rate compared with mock-treated ZIKV-infected cells (ZIKV strain SZ01): significantly reduced | EC50 (ZIKV strain SZ01): 97.5 ± 6.8 µM

NC(=O)c1ncn([C@@H]2O[C@H](CO)[C@@H](O)[C@H]2O)n1 [Ribavirin]
CC50 at 72 h [1]: > 2000 µM | effect on ZIKV-induced CPE or cell death (ZIKV strain SZ01; Vero cells, ZIKV strain SZ01): little or no effect | anti-ZIKV activity (ZIKV strain SZ01; at concentrations below 400 μM): not active
